Assay results: ChEMBL document CHEMBL5247629, “C-6 fluorinated casuarines as highly potent and selective amyloglucosidase inhibitors: Synthesis and structure-activity relationship study” (Eur J Med Chem, 2022)

Tests used:
[1] = Inhibition of Aspergillus niger amyloglucosidase
[2] = Inhibition of Aspergillus niger amyloglucosidase using p-nitrophenyl glycoside as substrate by spectrometric method

SMILES | IC50 [1] | pIC50 [2]
OC[C@@H]1[C@@H](O)[C@H](O)[C@H]2[C@H](F)[C@@H](O)CN21 | 5.3 µM | 5.276
OC[C@@H]1[C@@H](O)[C@H](O)[C@H]2[C@@H](F)[C@H](O)CN21 | 167 µM | 3.777
OC[C@@H]1[C@@H](O)[C@H](O)[C@H]2[C@@H](F)[C@@H](O)CN21 | 152 µM | 3.818
OC[C@@H]1[C@@H](O)[C@H](O)[C@H]2[C@@H](O)[C@@H](O)CN21 | 64 µM | 4.194
OC[C@@H]1[C@@H](O)[C@H](O)[C@@H]2N1C[C@@H](O)C2(F)F | 60 µM | 4.222
OC[C@@H]1[C@@H](O)[C@H](O)[C@H]2[C@H](F)[C@H](O)CN21 | 4.5 µM | 5.347
OC[C@@H]1[C@@H](O)[C@H](O)[C@H]2[C@@H](F)CCN21 | 81 µM | 4.092
OC[C@@H]1[C@@H](O)[C@H](O)[C@@H]2N1C[C@H](O)C2(F)F | 39 µM | 4.409
